Experimental data as given in ChEMBL document CHEMBL1155565, “Apramides A-G, novel lipopeptides from the marine cyanobacterium Lyngbya majuscula” (J Nat Prod, 2000).
≈ marks a conversion by molar mass, not a printed value. Calls of active or inactive are those of the source. The calls are words filed in the database; no cut-off is given here. Square brackets hold non-standard residues; d marks the D form. Peptide text beside a SMILES is read from it. * marks the point of attachment. Octanoyl(2R-Me,7,8-dehydro) = C=CCCCC[C@@H](C)C(=O)*; Oct7ynoyl(2R-Me) = C#CCCCC[C@@H](C)C(=O)*; NMeY = CN[C@@H](Cc1ccc(O)cc1)C(=O)O; Oct(7)ynoyl = C#CCCCCCC(=O)*; NMeV = CN[C@H](C(=O)O)C(C)C; X2 = c1csc([C@@H]2CCCN2*)n1; NMeA = CN[C@@H](C)C(=O)O; X1 = CN(Cc1nccs1)*

Experiments:
[1] = tested on: LoVo; experiment: Cytotoxicity against human LoVo cells; type: functional, cell-based
[2] = molecular target: Prothrombin (Homo sapiens) (UniProt P00734); experiment: Inhibition of thrombin
[3] = Inhibition of trypsin
[4] = Induction of elastase activity
[5] = molecular target: T1, Papain (Carica papaya) (UniProt P00784); experiment: Inhibition of Papaya papain
T1 sequence (whole entry): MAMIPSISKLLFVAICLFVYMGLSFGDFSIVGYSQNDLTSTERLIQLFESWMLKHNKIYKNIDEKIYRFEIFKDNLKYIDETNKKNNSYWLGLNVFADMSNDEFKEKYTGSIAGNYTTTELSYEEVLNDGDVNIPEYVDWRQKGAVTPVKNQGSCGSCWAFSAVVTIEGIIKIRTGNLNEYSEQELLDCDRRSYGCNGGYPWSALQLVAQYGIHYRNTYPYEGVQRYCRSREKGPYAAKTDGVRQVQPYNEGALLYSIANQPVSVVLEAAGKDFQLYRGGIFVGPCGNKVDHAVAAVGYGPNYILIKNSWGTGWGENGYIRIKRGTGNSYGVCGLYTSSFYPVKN

[6] = tested on: KB; experiment: Cytotoxicity against human KB cells; type: functional, cell-based
[7] = Inhibition of elastase
[8] = Inhibition of chymotrypsin

Row | SMILES | Activity [1] | Activity [6] | other results
1 | C#CCCCC[C@@H](C)C(=O)N(C)[C@@H](C)C(=O)N(C)[C@H](C(=O)N1CCC[C@H]1C(=O)N(C)[C@H](C(=O)N(C)[C@H](C(=O)N(C)[C@@H](Cc1ccc(OC)cc1)C(=O)N(C)Cc1nccs1)C(C)C)C(C)C)C(C)C ({Oct7ynoyl(2R-Me)}-[NMeA][NMeV]P[NMeV][NMeV][NMeY](Me)-X1) | inactive | inactive | Activity [2]: Active; Activity [3]: Active; Activity [4]: Active; Activity [5]: Active; Activity [7]: inactive; Activity [8]: Active
2 | C#CCCCC[C@@H](C)C(=O)N(C)[C@@H](C)C(=O)N(C)[C@H](C(=O)N1CCC[C@H]1C(=O)N(C)[C@H](C(=O)N(C)[C@H](C(=O)N(C)[C@@H](Cc1ccc(OC)cc1)C(=O)N1CCC[C@H]1c1nccs1)C(C)C)C(C)C)C(C)C ({Oct7ynoyl(2R-Me)}-[NMeA][NMeV]P[NMeV][NMeV][NMeY](Me)-X2) | inactive | inactive | 
3 | C#CCCCCCC(=O)N(C)[C@@H](C)C(=O)N(C)[C@H](C(=O)N1CCC[C@H]1C(=O)N(C)[C@H](C(=O)N(C)[C@H](C(=O)N(C)[C@@H](Cc1ccc(OC)cc1)C(=O)N(C)Cc1nccs1)C(C)C)C(C)C)C(C)C ({Oct(7)ynoyl}-[NMeA][NMeV]P[NMeV][NMeV][NMeY](Me)-X1) | inactive | inactive | 
4 | C#CCCCCCC(=O)N(C)[C@@H](C)C(=O)N(C)[C@H](C(=O)N1CCC[C@H]1C(=O)N(C)[C@H](C(=O)N(C)[C@H](C(=O)N(C)[C@@H](Cc1ccc(OC)cc1)C(=O)N1CCC[C@H]1c1nccs1)C(C)C)C(C)C)C(C)C ({Oct(7)ynoyl}-[NMeA][NMeV]P[NMeV][NMeV][NMeY](Me)-X2) | inactive | inactive | 
5 | C=CCCCC[C@@H](C)C(=O)N(C)[C@@H](C)C(=O)N(C)[C@H](C(=O)N1CCC[C@H]1C(=O)N(C)[C@H](C(=O)N(C)[C@H](C(=O)N(C)[C@@H](Cc1ccc(OC)cc1)C(=O)N(C)Cc1nccs1)C(C)C)C(C)C)C(C)C ({Octanoyl(2R-Me,7,8-dehydro)}-[NMeA][NMeV]P[NMeV][NMeV][NMeY](Me)-X1) | inactive | inactive | 
6 | C=CCCCC[C@@H](C)C(=O)N(C)[C@@H](C)C(=O)N(C)[C@H](C(=O)N1CCC[C@H]1C(=O)N(C)[C@H](C(=O)N(C)[C@H](C(=O)N(C)[C@@H](Cc1ccc(OC)cc1)C(=O)N1CCC[C@H]1c1nccs1)C(C)C)C(C)C)C(C)C ({Octanoyl(2R-Me,7,8-dehydro)}-[NMeA][NMeV]P[NMeV][NMeV][NMeY](Me)-X2) | inactive | inactive | 
7 | C#CCCCC[C@@H](C)C(=O)N(C)[C@@H](C)C(=O)N(C)[C@H](C(=O)N(C)[C@H](C(=O)N(C)[C@H](C(=O)N(C)[C@H](C(=O)N1CCC[C@H]1c1nccs1)C(C)C)C(C)C)C(C)C)C(C)C [APRAMIDE G] ({Oct7ynoyl(2R-Me)}-[NMeA][NMeV][NMeV][NMeV][NMeV]-X2) |  |  | IC50 [1]: 0.011 µg/mL (≈ 0.0133 µM); IC50 [6]: 0.033 µg/mL (≈ 0.0398 µM)
